Assay results from article PMC6268188, “Comparative Studies of the (Anti) Mutagenicity of Baccharis dracunculifolia and Artepillin C by the Bacterial Reverse Mutation Test” (Molecules, 2012).
Values joined by “and” are separate entries in the source; they are usually repeats but may differ in a detail not shown here. Equal entries are not always repeated. Where two headings read alike, the source gives them in different places. Marks after values point to notes of the source that are not given here.

How the values were obtained:
[1] = system: DNA damage induced by methyl methanesulfonate and doxorubicin; conditions: micronucleus and comet assays; cited from earlier work
[2] = system: mouse micronucleus and comet; design: method as in PMID 21259290; conditions: mouse micronucleus and comet assays; cited from earlier work
S. typhimurium TA102 = assay: Antimutagenicity assay (Ames test with known mutagens), strain TA102; format: cell-based, Salmonella typhimurium
[3] = 0.69 µg/plate + AFB1 0.5 μg/plate, TA 100, + S9
[4] = 0.69 µg/plate + SA 1.25 μg/plate, TA 100, − S9
[5] = 1.37 µg/plate + AFB1 0.5 μg/plate, TA 100, + S9
[6] = 1.37 µg/plate + SA 1.25 μg/plate, TA 100, − S9
[7] = 2.75 µg/plate + AFB1 0.5 μg/plate, TA 100, + S9
[8] = 2.75 µg/plate + SA 1.25 μg/plate, TA 100, − S9
[9] = 5.49 µg/plate + AFB1 0.5 μg/plate, TA 100, + S9
[10] = 5.49 µg/plate + SA 1.25 μg/plate, TA 100, − S9
[11] = […] + SA 1.25 μg/plate, TA 100, − S9
[12] = 0.69 µg/plate + AF 10.0 μg/plate, TA 102, + S9
[13] = 1.37 µg/plate + AF 10.0 μg/plate, TA 102, + S9
[14] = 1.37 µg/plate + MMC 0.5 μg/plate, TA 102, − S9
[15] = 2.75 µg/plate + AF 10.0 μg/plate, TA 102, + S9
[16] = 2.75 µg/plate + MMC 0.5 μg/plate, TA 102, − S9
[17] = 5.49 µg/plate + AF 10.0 μg/plate, TA 102, + S9
[18] = 5.49 µg/plate + MMC 0.5 μg/plate, TA 102, − S9

SMILES: CC(C)=CCc1cc(/C=C/C(=O)O)cc(CC=C(C)C)c1O [ArtC, 3-{4-hydroxy-3,5-di(3-methyl-2-butenyl)phenyl}-2(E)-propenoic acid]
- MI (mutagenicity index) (S. typhimurium TA97a; 0.69 µg/plate, TA 97, + S9): 1.2
- Number of revertants (M ± SD)/ plate (S. typhimurium TA97a; 0.69 µg/plate, TA 97, + S9): 194 ± 3 revertants/plate
- MI (mutagenicity index) (S. typhimurium TA97a; 0.69 µg/plate, TA 97, − S9): 1.4
- Number of revertants (M ± SD)/ plate (S. typhimurium TA97a; 0.69 µg/plate, TA 97, − S9): 207 ± 3 revertants/plate
- MI (mutagenicity index) (S. typhimurium TA97a; 1.37 µg/plate, TA 97, + S9): 1.1
- Number of revertants (M ± SD)/ plate (S. typhimurium TA97a; 1.37 µg/plate, TA 97, + S9): 174 ± 1 revertants/plate
- MI (mutagenicity index) (S. typhimurium TA97a; 1.37 µg/plate, TA 97, − S9): 1.5
- Number of revertants (M ± SD)/ plate (S. typhimurium TA97a; 1.37 µg/plate, TA 97, − S9): 221 ± 6 revertants/plate
- MI (mutagenicity index) (S. typhimurium TA97a; 2.75 µg/plate, TA 97, + S9): 1.1
- Number of revertants (M ± SD)/ plate (S. typhimurium TA97a; 2.75 µg/plate, TA 97, + S9): 175 ± 4 revertants/plate
- MI (mutagenicity index) (S. typhimurium TA97a; 2.75 µg/plate, TA 97, − S9): 1.6
- Number of revertants (M ± SD)/ plate (S. typhimurium TA97a; 2.75 µg/plate, TA 97, − S9): 246 ± 5 revertants/plate
- MI (mutagenicity index) (S. typhimurium TA97a; 5.49 µg/plate, TA 97, + S9): 1.1
- Number of revertants (M ± SD)/ plate (S. typhimurium TA97a; 5.49 µg/plate, TA 97, + S9): 175 ± 1 revertants/plate
- MI (mutagenicity index) (S. typhimurium TA97a; 5.49 µg/plate, TA 97, − S9): 1.4
- Number of revertants (M ± SD)/ plate (S. typhimurium TA97a; 5.49 µg/plate, TA 97, − S9): 207 ± 5 revertants/plate
- protection against DNA damage [1]: able to protect against DNA damage
- % inhibition (S. typhimurium TA100): 30 ** %
- Number of revertants (M ± SD)/ plate (S. typhimurium TA100): 1885 ± 25 revertants/plate and 1507 ± 43 revertants/plate
- antimutagenic effect class (S. typhimurium TA100): 30 ** (key: *: no antimutagenic effect (< 25% inhibition); **: moderate effect (25% - 40% inhibition); ***: strong antimutagenic effect (> 40% inhibition))
- % inhibition (S. typhimurium TA100; [3]): 26%
- Number of revertants (M ± SD)/ plate (S. typhimurium TA100; [3]): 1595 ± 37 revertants/plate
- % inhibition (S. typhimurium TA100; [4]): 16%
- Number of revertants (M ± SD)/ plate (S. typhimurium TA100; [4]): 1833 ± 48 revertants/plate
- antimutagenic effect class (S. typhimurium TA100; [4]): * (no antimutagenic effect (< 25% inhibition))
- % inhibition (S. typhimurium TA100; [5]): 24%
- Number of revertants (M ± SD)/ plate (S. typhimurium TA100; [5]): 1639 ± 33 revertants/plate
- antimutagenic effect class (S. typhimurium TA100; [5]): * (no antimutagenic effect (< 25% inhibition))
- % inhibition (S. typhimurium TA100; [6]): 11%
- Number of revertants (M ± SD)/ plate (S. typhimurium TA100; [6]): 1957 ± 36 revertants/plate
- antimutagenic effect class (S. typhimurium TA100; [6]): * (no antimutagenic effect (< 25% inhibition))
- % inhibition (S. typhimurium TA100; [7]): 27%
- Number of revertants (M ± SD)/ plate (S. typhimurium TA100; [7]): 1575 ± 11 revertants/plate
- % inhibition (S. typhimurium TA100; [8]): 17%
- Number of revertants (M ± SD)/ plate (S. typhimurium TA100; [8]): 1813 ± 24 revertants/plate
- antimutagenic effect class (S. typhimurium TA100; [8]): * (no antimutagenic effect (< 25% inhibition))
- % inhibition (S. typhimurium TA100; [9]): 26%
- Number of revertants (M ± SD)/ plate (S. typhimurium TA100; [9]): 1600 ± 38 revertants/plate
- % inhibition (S. typhimurium TA100; [10]): 21%
- Number of revertants (M ± SD)/ plate (S. typhimurium TA100; [10]): 1727 ± 39 revertants/plate
- antimutagenic effect class (S. typhimurium TA100; [10]): * (no antimutagenic effect (< 25% inhibition))
- inhibition of AFB1-induced mutation (text; number = highest observed percent inhibition) (S. typhimurium TA100; TA100, with metabolic activation, AFB1): did inhibit mutation
- % inhibition (S. typhimurium TA100; [11]): 14%
- antimutagenic effect class (S. typhimurium TA100; [11]): * (no antimutagenic effect (< 25% inhibition))
- genotoxic potential [2]: not genotoxic
- Number of revertants (M ± SD)/ plate (S. typhimurium TA102): 879 ± 11 revertants/plate and 529 ± 20 revertants/plate
- % inhibition (S. typhimurium TA102; [12]): 41%
- Number of revertants (M ± SD)/ plate (S. typhimurium TA102; [12]): 645 ± 23 revertants/plate
- antimutagenic effect class (S. typhimurium TA102; [12]): *** (strong antimutagenic effect (> 40% inhibition))
- Number of revertants (M ± SD)/ plate (S. typhimurium TA102; 0.69 µg/plate + MMC 0.5 μg/plate, TA 102, − S9): 1096 ± 19 revertants/plate
- % inhibition (S. typhimurium TA102; [13]): 46%
- Number of revertants (M ± SD)/ plate (S. typhimurium TA102; [13]): 595 ± 25 revertants/plate
- antimutagenic effect class (S. typhimurium TA102; [13]): *** (strong antimutagenic effect (> 40% inhibition))
- % inhibition (S. typhimurium TA102; [14]): 5%
- Number of revertants (M ± SD)/ plate (S. typhimurium TA102; [14]): 1022 ± 18 revertants/plate
- antimutagenic effect class (S. typhimurium TA102; [14]): * (no antimutagenic effect (< 25% inhibition))
- % inhibition (S. typhimurium TA102; [15]): 48%
- Number of revertants (M ± SD)/ plate (S. typhimurium TA102; [15]): 566 ± 17 revertants/plate
- antimutagenic effect class (S. typhimurium TA102; [15]): *** (strong antimutagenic effect (> 40% inhibition))
- % inhibition (S. typhimurium TA102; [16]): 7%
- Number of revertants (M ± SD)/ plate (S. typhimurium TA102; [16]): 994 ± 25 revertants/plate
- antimutagenic effect class (S. typhimurium TA102; [16]): * (no antimutagenic effect (< 25% inhibition))
- % inhibition (S. typhimurium TA102; [17]): 56%
- Number of revertants (M ± SD)/ plate (S. typhimurium TA102; [17]): 488 ± 14 revertants/plate
- antimutagenic effect class (S. typhimurium TA102; [17]): *** (strong antimutagenic effect (> 40% inhibition))
- % inhibition (S. typhimurium TA102; [18]): 12%
- Number of revertants (M ± SD)/ plate (S. typhimurium TA102; [18]): 943 ± 17 revertants/plate
- antimutagenic effect class (S. typhimurium TA102; [18]): * (no antimutagenic effect (< 25% inhibition))
- effect on MMC-induced mutagenicity (S. typhimurium TA102; TA102, MMC): did not affect
